The values that follow come from ChEMBL document CHEMBL1287717, “Design and synthesis of macrocyclic indoles targeting blood coagulation cascade Factor XIa” (Bioorg Med Chem Lett, 2010).

Usually Ki stands for the equilibrium dissociation constant of an inhibitor or competing ligand from its target. Read a low Ki as a stronger hold on the target. One may read the IC50 as the point on the concentration scale where inhibition reaches its midpoint. A low value points to greater potency.

Structures are written as SMILES. Activity calls are given as the source filed them. No cut-off for these calls is given here.

Experiment [1] deals with T1, Prothrombin (Homo sapiens, UniProt P00734). The experiment can be described thus: Inhibition of factor 2a.
Experiment [2] concerns the target Trypsin (Homo sapiens, UniProt P07477+P07478+P35030). The experiment in a line: Inhibition of human trypsin. Type of experiment: protein assay.
Experiment [3] concerns the target T2, Coagulation factor XI (Homo sapiens, UniProt P03951). The experiment in a line: Inhibition of factor 11a at 300 uM.
For experiment [4], the target named is T1, Prothrombin. The experiment can be described thus: Inhibition of factor 2a at 300 uM.
In experiment [5] the target is T3, Vitamin K-dependent protein C (Homo sapiens, UniProt P04070). The experiment in a line: Inhibition of activated protein C at 300 uM.
In experiment [6] the target is T2, Coagulation factor XI. The experiment in a line: Inhibition of factor 11a.
Experiment [7] has as its target T3, Vitamin K-dependent protein C. The experiment can be described thus: Inhibition of activated protein C.
The target in experiment [8] is Coagulation factor IX (Homo sapiens) (UniProt P00740). The experiment can be described thus: Inhibition of factor 9a at 300 uM.
Chain of Coagulation factor IX (Homo sapiens) (P00740 47-191 limits assumed): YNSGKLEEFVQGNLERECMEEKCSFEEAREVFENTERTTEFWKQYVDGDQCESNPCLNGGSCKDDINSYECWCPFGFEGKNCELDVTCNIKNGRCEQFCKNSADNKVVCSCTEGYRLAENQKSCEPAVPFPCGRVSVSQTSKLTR
Chain of Coagulation factor IX (Homo sapiens) (P00740 227-461 limits assumed): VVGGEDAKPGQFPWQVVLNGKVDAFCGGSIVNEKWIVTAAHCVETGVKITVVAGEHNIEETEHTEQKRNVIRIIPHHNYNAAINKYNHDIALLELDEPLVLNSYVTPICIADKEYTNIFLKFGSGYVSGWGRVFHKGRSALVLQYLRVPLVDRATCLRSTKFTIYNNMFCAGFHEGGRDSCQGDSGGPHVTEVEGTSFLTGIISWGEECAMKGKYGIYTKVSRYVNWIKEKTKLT

T2 sequence (P03951 19-387 limits assumed): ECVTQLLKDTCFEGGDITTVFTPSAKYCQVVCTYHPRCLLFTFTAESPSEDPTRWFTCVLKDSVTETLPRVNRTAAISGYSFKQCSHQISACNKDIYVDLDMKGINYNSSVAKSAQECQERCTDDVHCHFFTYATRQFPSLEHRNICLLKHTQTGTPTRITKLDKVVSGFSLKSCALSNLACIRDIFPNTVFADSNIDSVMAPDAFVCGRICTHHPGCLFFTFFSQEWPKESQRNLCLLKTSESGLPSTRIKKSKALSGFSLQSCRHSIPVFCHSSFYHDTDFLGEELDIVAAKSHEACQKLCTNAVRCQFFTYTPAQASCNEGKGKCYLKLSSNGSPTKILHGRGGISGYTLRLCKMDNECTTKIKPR
T2 sequence (P03951 388-625 limits assumed): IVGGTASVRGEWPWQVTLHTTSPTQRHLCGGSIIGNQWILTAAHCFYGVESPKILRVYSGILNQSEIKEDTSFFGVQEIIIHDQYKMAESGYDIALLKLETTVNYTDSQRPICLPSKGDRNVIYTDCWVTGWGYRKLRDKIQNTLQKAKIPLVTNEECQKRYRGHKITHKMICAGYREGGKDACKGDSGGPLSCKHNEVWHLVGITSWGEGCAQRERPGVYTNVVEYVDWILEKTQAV
T3 sequence (P04070 43-197 limits assumed): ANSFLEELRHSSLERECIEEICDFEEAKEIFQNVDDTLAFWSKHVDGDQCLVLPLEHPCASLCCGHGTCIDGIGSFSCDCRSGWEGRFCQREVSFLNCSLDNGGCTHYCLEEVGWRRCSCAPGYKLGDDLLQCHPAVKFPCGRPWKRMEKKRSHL
T3 sequence (P04070 212-461 limits assumed): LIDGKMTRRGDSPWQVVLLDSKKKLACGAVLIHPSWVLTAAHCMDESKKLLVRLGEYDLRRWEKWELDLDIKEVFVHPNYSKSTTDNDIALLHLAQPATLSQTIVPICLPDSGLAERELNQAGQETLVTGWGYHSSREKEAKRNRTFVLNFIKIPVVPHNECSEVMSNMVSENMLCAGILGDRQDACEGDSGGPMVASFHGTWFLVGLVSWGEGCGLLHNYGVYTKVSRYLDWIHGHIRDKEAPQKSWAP

Consider `O=C1Cn2c(Cl)cnc(c2=O)N[C@@H](Cc2ccccc2)CNCCCNCCc2ccc(Cl)cc2CN1`, for which, in experiment [1], the Ki is 90 pM.

As to `C=CCCS(=O)(=O)N[C@@H](C(=O)N[C@@H](CC(C)C)C(=O)NCc1c(CC=C)[nH]c2ccc(Cl)cc12)C1CCCCC1`, the IC50 in experiment [2] came to 1.16 µM. In experiment [2], this compound gave a Kic of 0.142 µM. In addition, the inhibition entry in experiment [3], in experiment [4] and in experiment [5] was “inactive” in each case.

On to `CC(C)C[C@@H]1NC(=O)[C@@H](C2CCCCC2)NC(=O)[C@H](c2ccccc2)CCCCc2[nH]c3ccc(Cl)cc3c2CNC1=O`, for which the IC50 in experiment [2] was found to be 2.31 µM. Further, the Kic in experiment [2] is 0.281 µM. Besides, the inhibition entry in experiment [3], in experiment [4] and in experiment [5] was “inactive” throughout.

Turning to `CC(C)C[C@@H]1NC(=O)[C@@H](C2CCCCC2)NC(=O)[C@H](c2ccccc2)C/C=C/Cc2[nH]c3ccc(Cl)cc3c2CNC1=O`, the IC50 amounted to 0.26 µM in experiment [2], 136 µM in experiment [6] and 145 µM in experiment [7]. Further, the Kic stood at 0.031 µM in experiment [2] and 116 µM in experiment [7]. Further, in experiment [4], the inhibition result is “inactive”.

On to `CC(C)C[C@@H]1NC(=O)[C@@H](C2CCCCC2)NS(=O)(=O)CCCCCc2[nH]c3ccc(Cl)cc3c2CNC1=O`, for which the half-maximal inhibitory concentration (IC50) in experiment [2] turned out to be 2.43 µM; in experiment [6], 176 µM. The Kic in experiment [2] came to 0.296 µM; in experiment [6] it was 87.9 µM. Also, the inhibition result in experiment [4] and in experiment [5] was “inactive” in each case.

Take `CC(C)C[C@@H]1NC(=O)[C@@H](C2CCCCC2)NS(=O)(=O)CC/C=C/Cc2[nH]c3ccc(Cl)cc3c2CNC1=O`: the figures for the IC50 in experiment [2], in experiment [6] and in experiment [1] were 2.69 µM, 768 µM and 67.9 µM, respectively. The results for the Kic in experiment [2], in experiment [6] and in experiment [1] were 0.328 µM, 384 µM and 10.6 µM, respectively. Further, the inhibition result in experiment [5] was “inactive”.

Consider `CC(C)C[C@@H]1NC(=O)[C@@H](C2CCCCC2)NC(=O)CC/C=C/Cc2[nH]c3ccc(Cl)cc3c2CNC1=O`, for which the inhibition entry in experiment [8] is “inactive”.

Regarding `CC(C)C[C@@H]1NC(=O)[C@@H](C2CCCCC2)NC(=O)CCCCCc2[nH]c3ccc(Cl)cc3c2CNC1=O`, the values for the IC50 in experiment [2], in experiment [1] and in experiment [7] were 10 µM, 10.6 µM and 395 µM, respectively. In addition, the figures for the Kic in experiment [2], in experiment [1] and in experiment [7] were 1.22 µM, 1.7 µM and 316 µM, respectively. In experiment [3], the inhibition entry is “inactive”.

`CO[C@H](COS(=O)(=O)[O-])C(=O)N[C@@H](C(=O)N1[C@H](C(=O)NCCC2=CC[N+](=C(N)N)C2)C[C@@H]2C[C@H](O)[C@@H](O)C[C@@H]21)[C@H](Cl)C(C)C` [CHLORODYSINOSIN A]: in experiment [1], the IC50 was determined as 0.0057 µM.

Regarding `C=CCCC(=O)N[C@@H](C(=O)N[C@@H](CC(C)C)C(=O)NCc1c(CC=C)[nH]c2ccc(Cl)cc12)C1CCCCC1`, the IC50 in experiment [2] was determined as 2.17 µM; in experiment [6] it was 103 µM; in experiment [7], 284 µM. Also, the Kic was 0.264 µM in experiment [2], 51.6 µM in experiment [6] and 227 µM in experiment [7]. Besides, in experiment [4], the inhibition result was “inactive”.

`C=CCc1[nH]c2ccc(Cl)cc2c1CNC(=O)[C@H](CC(C)C)NC(=O)[C@H](NC(=O)[C@@H](CC=C)c1ccccc1)C1CCCCC1`: the values for the IC50 in experiment [2], in experiment [6] and in experiment [7] were 0.16 µM, 146 µM and 103 µM, respectively. Further, the Kic is 0.02 µM in experiment [2], 73 µM in experiment [6] and 82.8 µM in experiment [7]. For the same compound, the inhibition result in experiment [4] is “inactive”.

With `NC(N)=NCCC[C@@H]1NC(=O)[C@@H]2CCCN2C(=O)[C@@H](NC=O)CNC(=O)/C=C/[C@H](Cc2ccc(O)cc2)NC(=O)[C@@H](Cc2ccccc2)NC(=O)C1=O` [CYCLOTHEONAMIDE A], the IC50 in experiment [1] worked out at 0.0015 µM.

Consider `CCCCCC(=O)NCC(=O)N[C@H](C(=O)N[C@@H]1C(=O)N[C@@H](CCC(N)=O)C(=O)N[C@H]2CC[C@@H](O)N(C2=O)[C@@H](Cc2ccccc2)C(=O)N(C)[C@@H](Cc2c[nH]c3ccccc23)C(=O)N[C@@H](C(C)C)C(=O)O[C@@H]1C)[C@@H](C)O` [MICROPEPTIN 103], for which the IC50 in experiment [1] was found to be 8.7 µM.
